{"source": "patent US20150037408A1", "about": "“Delayed Release Pharmaceutical Compositions of Salsalate” (priority 2012, published 2015)", "origin": "cited, not measured here", "key": {"[1]": {"settings": "3 grams daily (two 750-mg tablets twice daily) for 15 days"}, "[2]": {"settings": "patients with osteoarthrosis of the hip or knee"}}}
{"smiles": "O=C(Oc1ccccc1C(=O)O)c1ccccc1O", "note": "[Salsalate, 2-hydroxybenzoic acid 2-carboxyphenyl ester]", "values": [{"measurement": "efficacy and safety in arthritic disease", "setting": "[1]", "value": "effective and safe in ameliorating the symptoms of arthritic disease"}, {"measurement": "clinical improvement versus aspirin", "setting": "[2]", "value": "comparable clinical improvement to that with aspirin"}, {"measurement": "side-effects and faecal occult blood loss versus aspirin", "setting": "[2]", "value": "significantly superior to aspirin"}]}
